From US20240190880A1 (THE REGENTS OF THE UNIVERSITY OF MICHIGAN, priority 2021, published 2024)

Target: T1, ER (Homo sapiens, UniProt P03372)
T1 construct: host or cells: T47D and MCF7 human breast cancer cells
T1 sequence (P03372 1-595): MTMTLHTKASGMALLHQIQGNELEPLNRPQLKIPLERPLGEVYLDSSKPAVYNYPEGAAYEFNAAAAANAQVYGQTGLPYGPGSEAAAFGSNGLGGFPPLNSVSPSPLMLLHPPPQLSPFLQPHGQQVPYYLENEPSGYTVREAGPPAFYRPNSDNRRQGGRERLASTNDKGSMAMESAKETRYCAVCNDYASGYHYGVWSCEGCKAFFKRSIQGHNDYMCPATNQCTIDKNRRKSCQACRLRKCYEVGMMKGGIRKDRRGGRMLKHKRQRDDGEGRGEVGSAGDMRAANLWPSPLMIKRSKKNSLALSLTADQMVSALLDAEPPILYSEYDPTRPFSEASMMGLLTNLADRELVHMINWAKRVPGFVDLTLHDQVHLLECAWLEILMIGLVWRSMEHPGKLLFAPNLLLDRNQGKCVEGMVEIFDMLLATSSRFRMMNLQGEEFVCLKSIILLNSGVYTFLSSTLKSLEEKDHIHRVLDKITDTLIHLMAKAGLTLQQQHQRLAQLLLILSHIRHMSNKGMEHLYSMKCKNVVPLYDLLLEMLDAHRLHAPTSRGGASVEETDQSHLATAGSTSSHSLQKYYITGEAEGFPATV
Assay: ER degradation activity, in-cell western blot analysis in T47D cells
Format: cell-based
Settings: 16 hours, Table A does not say which cell line (T47D or MCF7), read-out: Potency (DC50)
Procedure, shortened: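 T47D cells cultured in DMEM with 10% FBS, treated with compounds (final 0.5% DMSO) for 16 h. ER level measured by in-cell western with anti-rabbit-680/anti-mouse-800 near-infrared detection. Relative ER percentage calculated against untreated and DMSO-treated wells set as 100%.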

| DC50 [nM] | Structure (SMILES) |
| --- | --- |
| 10 to 100 | O=C1CCC(N2C(=O)c3cc4c(cc3C2=O)CN(C(=O)[C@H]2CC[C@H](N3CC(Nc5ccc([C@H]6c7ccc(O)cc7CC[C@H]6c6ccccc6)cc5)C3)CC2)C4)C(=O)N1 (stereo partly drawn) [E 390, 2-(2,6-dioxopiperidin-3-yl)-6-((1S,4r)-4-(3-((4-((1S,2R)-6-hydroxy-2-phenyl-1,2,3,4-tetrahydronaphthalen-1-yl)phenyl)amino)azetidin-1-yl)cyclohexane-1-carbonyl)-6,7-dihydropyrrolo[3,4-f]isoindole-1,3(2H,5H)-dione] |
| > 100 | O=C1CCC(N2C(=O)c3cc4c(cc3C2=O)CN(C(=O)[C@H]2CC[C@H](N3CC(Nc5ccc([C@H]6c7ccc(O)cc7CC[C@H]6c6ccccc6)cc5)C3)CC2)C4)C(=O)N1 (stereo partly drawn) [E 391, 2-(2,6-dioxopiperidin-3-yl)-6-((1S,4r)-4-(3-((4-((1S,2R)-6-hydroxy-2-phenyl-1,2,3,4-tetrahydronaphthalen-1-yl)phenyl)amino)azetidin-1-yl)cyclohexane-1-carbonyl)-6,7-dihydropyrrolo[3,4-f]isoindole-1,3(2H,5H)-dione] |
| 10 to 100 | C[C@@H]1Cc2c([nH]c3ccccc23)[C@@H](c2c(F)cc(C3CCN(C(=O)[C@H]4CC[C@@H](N5Cc6cc7c(cc6C5)C(=O)N(C5CCC(=O)NC5=O)C7=O)CC4)CC3)cc2F)N1CC(F)F (stereo partly drawn) [E 392, 6-((1S,4s)-4-(4-(4-((1R,3R)-2-(2,2-difluoroethyl)-3-methyl-2,3,4,9-tetrahydro-1H-pyrido[3,4-b]indol-1-yl)-3,5-difluorophenyl)piperidine-1-carbonyl)cyclohexyl)-2-(2,6-dioxopiperidin-3-yl)-6,7-dihydropyrrolo[3,4-f]isoindole-1,3(2H,5H)-dione] |
| < 10 | C[C@@H]1Cc2c([nH]c3ccccc23)[C@@H](c2c(F)cc(C3CCN(C(=O)[C@H]4CC[C@H](N5Cc6cc7c(cc6C5)C(=O)N(C5CCC(=O)NC5=O)C7=O)CC4)CC3)cc2F)N1CC(F)F (stereo partly drawn) [E 393, 6-((1R,4r)-4-(4-(4-((1R,3R)-2-(2,2-difluoroethyl)-3-methyl-2,3,4,9-tetrahydro-1H-pyrido[3,4-b]indol-1-yl)-3,5-difluorophenyl)piperidine-1-carbonyl)cyclohexyl)-2-(2,6-dioxopiperidin-3-yl)-6,7-dihydropyrrolo[3,4-f]isoindole-1,3(2H,5H)-dione] |
| > 100 | CN(c1ccc([C@H]2c3ccc(O)cc3CC[C@H]2c2ccccc2)cc1)C1CN([C@H]2CC[C@H](C(=O)N3Cc4cc5c(cc4C3)C(=O)N(C3CCC(=O)NC3=O)C5=O)CC2)C1 (stereo partly drawn) [E 394, 2-(2,6-dioxopiperidin-3-yl)-6-((1S,4r)-4-(3-((4-((1S,2R)-6-hydroxy-2-phenyl-1,2,3,4-tetrahydronaphthalen-1-yl)phenyl)(methyl)amino)azetidin-1-yl)cyclohexane-1-carbonyl)-6,7-dihydropyrrolo[3,4-f]isoindole-1,3(2H,5H)-dione] |

Continued, compound first:

| Structure (SMILES) | DC50 [nM] |
| --- | --- |
| C[C@@H]1Cc2c([nH]c3ccccc23)[C@H](c2c(F)cc(C(=O)N3CCC4(CCC(CN5Cc6cc7c(cc6C5)C(=O)N(C5CCC(=O)NC5=O)C7=O)CC4)CC3)cc2F)N1CC(F)F (stereo partly drawn) [E 379, 6-((3-(4-((1S,3R)-2-(2,2-difluoroethyl)-3-methyl-2,3,4,9-tetrahydro-1H-pyrido[3,4-b]indol-1-yl)-3,5-difluorobenzoyl)-3-azaspiro[5.5]undecan-9-yl)methyl)-2-(2,6-dioxopiperidin-3-yl)-6,7-dihydropyrrolo[3,4-f]isoindole-1,3(2H,5H)-dione] | > 100 |
| C[C@@H]1Cc2c([nH]c3ccccc23)[C@@H](c2c(F)cc(CN3CCC4(CCC(CN5Cc6cc7c(cc6C5)C(=O)N(C5CCC(=O)NC5=O)C7=O)CC4)CC3)cc2F)N1CC(F)F (stereo partly drawn) [E 380, 6-((3-(4-((1R,3R)-2-(2,2-difluoroethyl)-3-methyl-2,3,4,9-tetrahydro-1H-pyrido[3,4-b]indol-1-yl)-3,5-difluorobenzyl)-3-azaspiro[5.5]undecan-9-yl)methyl)-2-(2,6-dioxopiperidin-3-yl)-6,7-dihydropyrrolo[3,4-f]isoindole-1,3(2H,5H)-dione] | > 100 |
| C[C@@H]1Cc2c([nH]c3ccccc23)[C@H](c2c(F)cc(CN3CCC4(CCC(CN5Cc6cc7c(cc6C5)C(=O)N(C5CCC(=O)NC5=O)C7=O)CC4)CC3)cc2F)N1CC(F)F (stereo partly drawn) [E 381, 6-((3-(4-((1S,3R)-2-(2,2-difluoroethyl)-3-methyl-2,3,4,9-tetrahydro-1H-pyrido[3,4-b]indol-1-yl)-3,5-difluorobenzyl)-3-azaspiro[5.5]undecan-9-yl)methyl)-2-(2,6-dioxopiperidin-3-yl)-6,7-dihydropyrrolo[3,4-f]isoindole-1,3(2H,5H)-dione] | > 100 |
| C[C@@H]1Cc2c([nH]c3ccccc23)[C@@H](c2c(F)cc(CN3CCC4(CCC(C(=O)N5Cc6cc7c(cc6C5)C(=O)N(C5CCC(=O)NC5=O)C7=O)CC4)CC3)cc2F)N1CC(F)F (stereo partly drawn) [E 382, 6-(3-(4-((1R,3R)-2-(2,2-difluoroethyl)-3-methyl-2,3,4,9-tetrahydro-1H-pyrido[3,4-b]indol-1-yl)-3,5-difluorobenzyl)-3-azaspiro[5.5]undecane-9-carbonyl)-2-(2,6-dioxopiperidin-3-yl)-6,7-dihydropyrrolo[3,4-f]isoindole-1,3(2H,5H)-dione] | > 100 |
| C[C@@H]1Cc2c([nH]c3ccccc23)[C@H](c2c(F)cc(CN3CCC4(CCC(C(=O)N5Cc6cc7c(cc6C5)C(=O)N(C5CCC(=O)NC5=O)C7=O)CC4)CC3)cc2F)N1CC(F)F (stereo partly drawn) [E 383, 6-(3-(4-((1S,3R)-2-(2,2-difluoroethyl)-3-methyl-2,3,4,9-tetrahydro-1H-pyrido[3,4-b]indol-1-yl)-3,5-difluorobenzyl)-3-azaspiro[5.5]undecane-9-carbonyl)-2-(2,6-dioxopiperidin-3-yl)-6,7-dihydropyrrolo[3,4-f]isoindole-1,3(2H,5H)-dione] | > 100 |
| O=C1CCC(N2C(=O)c3cc4c(cc3C2=O)CN(C2CCC(C(=O)N3CC(Oc5ccc([C@H]6c7ccc(O)cc7CC[C@H]6c6ccccc6)cc5)C3)CC2)C4)C(=O)N1 (stereo partly drawn) [E 384, 2-(2,6-dioxopiperidin-3-yl)-6-((1R,4s)-4-(3-(4-((1S,2R)-6-hydroxy-2-phenyl-1,2,3,4-tetrahydronaphthalen-1-yl)phenoxy)azetidine-1-carbonyl)cyclohexyl)-6,7-dihydropyrrolo[3,4-f]isoindole-1,3(2H,5H)-dione] | 10 to 100 |
| O=C1CCC(N2C(=O)c3cc4c(cc3C2=O)CN([C@H]2CC[C@H](C(=O)N3CC(Oc5ccc([C@H]6c7ccc(O)cc7CC[C@H]6c6ccccc6)cc5)C3)CC2)C4)C(=O)N1 (stereo partly drawn) [E 385, 2-(2,6-dioxopiperidin-3-yl)-6-((1S,4r)-4-(3-(4-((1S,2R)-6-hydroxy-2-phenyl-1,2,3,4-tetrahydronaphthalen-1-yl)phenoxy)azetidine-1-carbonyl)cyclohexyl)-6,7-dihydropyrrolo[3,4-f]isoindole-1,3(2H,5H)-dione] | < 10 |
| O=C1CCC(N2C(=O)c3cc4c(cc3C2=O)CN([C@H]2CC[C@@H](C(=O)N3CC(Nc5ccc([C@H]6c7ccc(O)cc7CC[C@H]6c6ccccc6)cc5)C3)CC2)C4)C(=O)N1 (stereo partly drawn) [E 386, 2-(2,6-dioxopiperidin-3-yl)-6-((1R,4s)-4-(3-((4-((1S,2R)-6-hydroxy-2-phenyl-1,2,3,4-tetrahydronaphthalen-1-yl)phenyl)amino)azetidine-1-carbonyl)cyclohexyl)-6,7-dihydropyrrolo[3,4-f]isoindole-1,3(2H,5H)-dione] | > 100 |
| O=C1CCC(N2C(=O)c3cc4c(cc3C2=O)CN([C@H]2CC[C@H](C(=O)N3CC(Nc5ccc([C@H]6c7ccc(O)cc7CC[C@H]6c6ccccc6)cc5)C3)CC2)C4)C(=O)N1 (stereo partly drawn) [E 387, 2-(2,6-dioxopiperidin-3-yl)-6-((1S,4r)-4-(3-((4-((1S,2R)-6-hydroxy-2-phenyl-1,2,3,4-tetrahydronaphthalen-1-yl)phenyl)amino)azetidine-1-carbonyl)cyclohexyl)-6,7-dihydropyrrolo[3,4-f]isoindole-1,3(2H,5H)-dione] | < 10 |
| O=C1CCC(N2C(=O)c3cc4c(cc3C2=O)CN(C(=O)[C@H]2CC[C@H](N3CC(Oc5ccc([C@H]6c7ccc(O)cc7CC[C@H]6c6ccccc6)cc5)C3)CC2)C4)C(=O)N1 (stereo partly drawn) [E 388, 2-(2,6-dioxopiperidin-3-yl)-6-((1S,4r)-4-(3-(4-((1S,2R)-6-hydroxy-2-phenyl-1,2,3,4-tetrahydronaphthalen-1-yl)phenoxy)azetidin-1-yl)cyclohexane-1-carbonyl)-6,7-dihydropyrrolo[3,4-f]isoindole-1,3(2H,5H)-dione] | 10 to 100 |
| O=C1CCC(N2C(=O)c3cc4c(cc3C2=O)CN(C(=O)[C@H]2CC[C@@H](N3CC(Oc5ccc([C@H]6c7ccc(O)cc7CC[C@H]6c6ccccc6)cc5)C3)CC2)C4)C(=O)N1 (stereo partly drawn) [E 389, 2-(2,6-dioxopiperidin-3-yl)-6-((1R,4s)-4-(3-(4-((1S,2R)-6-hydroxy-2-phenyl-1,2,3,4-tetrahydronaphthalen-1-yl)phenoxy)azetidin-1-yl)cyclohexane-1-carbonyl)-6,7-dihydropyrrolo[3,4-f]isoindole-1,3(2H,5H)-dione] | > 100 |
